Assay results reported in patent US20250034191A1, “LIGININ FLOWER PRODUCTION AND USES THEREOF” (SILICYCLE INC., priority 2021, published 2025).
Several values for one entry are separate records, joined by “and”; a condition that tells them apart may be missing. Equal entries are not always repeated.

Columns and labels:
[1] = system: reconstructed artificial human skin model (normal human epidermal keratinocytes); experiment: In vitro skin irritation, reconstructed human epidermis (OECD 439), MTT; format: cell-based; conditions: 42 h treatment, 42 hours incubation
Description: The purpose of this test is to evaluate if the tested material is, or is not a skin irritant, according to the method described in OECD 439. This method uses the human artificial skin model (EPISKIN™, EpiDerm™, Episkin™ RHE) to assess the skin irritation of chemical substances, mixtures and to properly label them to this respect if applicable.
The test is based on the evaluation of cell survival after the exposure to the substance through MTT assay and by comparison with epidermis treated with phosphate buffer only (negative control). The MTT method is a colorimetric assay that allows to determine the percentage of cells alive within an in vitro cultured tissue. This assay is based on the ability of the mitochondrial succinate dehydrogenase enzyme to metabolize the nitro-blue tetrazolium salt, giving a colored compound that can be measured by spectrophotometer reading. […]
Epidermis units are treated with 1 mg/ml MTT solution (3-[4,5-dimethylthiazol-2-yl]-2,5-diphenyl tetrazolium bromide) for 3 h at 37° C. […] 2 aliquots of every sample are transferred to a 96 well plate for the reading. The absorbance is read at the wavelength of 570 nm with a colorimeter (Tecan model Infinite 200 PRO) equipped with a microplate reader.

[2] = system: NADPH-oxidase complex; conditions: Zhang, Yi et al., American Journal of Hypertension, 2005; cited from earlier work
[3] = system: S. typhimurium TA 98; experiment: Ames test (OECD 471), plate incorporation assay; format: cell-based, Salmonella typhimurium; conditions: TA 98 with S9, positive control, 3.0 μg/plate (Table 3)
Description: The purpose of the test is to investigate the possible genotoxic activity exerted by the tested substance in bacterial strains of Salmonella typhimurium, with and without metabolic activation with S9.
The Ames test allows for detecting the induction of point mutations in nucleotide bases, such as deletions, insertions, transversions and frameshift mutations by using modified Salmonella typhimurium strains. These strains carry a defective gene in the histidine operon making them auxotroph for this amino acid (mutants His-which require histidine in the culture medium for growth). The method guiding principle is based on the reverse mutation phenomenon by which bacteria exposed to a mutagenic substance may change back and become again prototroph concerning histidine (His+). The bacterial cells in growth phase are exposed to different concentrations of the test agent and mutagenic activity is determined by the capability of the test substance to induce a significant increase in the number of revertant (histidine-independent mutant, His+) in comparison to the spontaneous reversions occurring in the control cultures.
Some chemical agents are not directly mutagen but become so by following transformation and metabolic activation occurring in the organism by liver enzyme activity. To study this genotoxic effect, rat liver microsomal fraction (S9) has been added. The employ of S9 allows identifying substances that act as indirect mutagen.
In this assay, 5 bacterial strains TA 1535, TA100, TA 102, TA 1537 and TA98 have been used and their characteristics are illustrated in Table 3. Each tester strains contains a different type of mutation in the histidine operon. TA 1535 and TA 100 strains are specific testers for mutagens causing base substitutions. The TA 102 strain is used to detect mutagens that require an intact excision repair system. […] Furthermore, the TA 102 strain contains the multicopy plasmid, pAQ1, which confers tetracycline resistance. The frameshift tester strains used are TA 1537 and TA 98. TA 98, like TA 100, is ampicillin resistant. All S. typhimurium strains carry, along with the defect in the histidine gene (His−), a deep rough (rfa) character, a mutation that causes partial loss of the lipopolysaccharide barrier that coats the surface of the bacteria and increases permeability to large molecules. […] For technical reason, the deletion excising the uvrB gene extends through the bio gene and, consequently, these bacteria also require biotin for growth.
The study was performed using the plate incorporation assay with and without S9 mix. S9 is composed by Aroclor 1254 induced rat liver supplemented with glucose-6-phosphate and NADP (Moltox®). The experiment was performed in duplicate Petri dishes containing basal medium and a further layer of medium containing histidine+biotin, the Salmonella typhimurium suspension, the sample to be tested at different concentrations and, if the case of metabolic activation, a 5% S9 mix. Dishes were incubated for 48 hours at 37° C. When the incubation time was over, a basal bacterial growth was achieved limited by the amount of histidine in the medium and in add the growth of revertant colonies (his+). In particular, the basic number of revertant colonies is steady, different for each strain, due to the spontaneous mutation rate of the bacterial strain. If an increase in the number of revertant colonies is observed, this is proportional to the tested sample concentration and to its mutagen capability. […]

[4] = system: secreted IL6; experiment: Interleukin 6 (IL6) secretions in coculture; format: cell-based, human
Description: To assess the effect of the test element on inflammation, we assayed extracellular concentrations of secreted IL6. The results were normalized by the number of fibroblasts and represented as a percentage of the solvent condition DMSO (FIG. 13).

## CCCCCCCCCCCCOS(=O)(=O)[O-].[Na+] [SLS 5%]
[1]
  Classification: I (Irritant)
[1]; tested undiluted
  % mean cell viability (ds): 0.93%

## COc1cc(C(C)=O)ccc1O [Apocynin, apocynin]
[2]
  inhibition of the NADPH-oxidase complex: effective inhibitor

## Nc1ccc2cc3ccccc3cc2c1 [2AAn, 2-aminoanthracene]
[3]
  Statistically significant vs solvent control (p < 0.05): yes
  revertant, mean: 3320 UFC/plate
  revertant, single replicates: 3353 UFC/plate and 3291 UFC/plate and 3316 UFC/plate

## C[C@@H]1C[C@H]2[C@@H]3CCC4=CC(=O)C=C[C@]4(C)[C@@]3(F)[C@@H](O)C[C@]2(C)[C@@]1(O)C(=O)CO [Dexamethasone]
[4]; D3, anti-inflammatory reference
  IL6 secretions, normalized by number of fibroblasts: 25%
[4]; D6, compared to the coculture control
  IL6 secretions, normalized by number of fibroblasts: 85%
